Laboratory results published in patent US7396849B2, “4-(Condensed cyclicmethyl)-imidazole-2-thiones acting as α2 adrenergic agonists” (Allergan, Inc., priority 2004, dated 2008).

Experiments:
[1] = target: T1, alpha2B adrenergic receptors (Homo sapiens, UniProt P18089); assay: RSAT assay (Receptor Selection and Amplification Technology), alpha2B; format: cell-based; details: NIH-3T3 cells, ratio of maximal effect to that of standard full agonist brimonidine, NA = not active below 10 micromolar
T1 construct: expressed in transfected cells; host or cells: NIH-3T3 cells
T1 sequence (P18089 1-450): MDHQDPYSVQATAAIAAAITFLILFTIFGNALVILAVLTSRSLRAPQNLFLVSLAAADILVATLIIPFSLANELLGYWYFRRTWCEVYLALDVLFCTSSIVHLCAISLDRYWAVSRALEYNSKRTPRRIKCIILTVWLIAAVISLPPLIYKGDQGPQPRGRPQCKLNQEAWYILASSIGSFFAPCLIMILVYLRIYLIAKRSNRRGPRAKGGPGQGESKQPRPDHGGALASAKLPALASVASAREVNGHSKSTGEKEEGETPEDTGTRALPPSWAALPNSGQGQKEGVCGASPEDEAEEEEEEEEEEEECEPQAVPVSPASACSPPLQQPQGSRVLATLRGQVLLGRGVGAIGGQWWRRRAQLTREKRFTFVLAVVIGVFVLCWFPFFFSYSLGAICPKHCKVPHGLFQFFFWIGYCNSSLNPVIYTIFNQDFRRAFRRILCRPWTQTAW
Source text: The imidazole-2-thione compounds of the invention are agonists of alpha2 adrenergic receptors. Many compounds of the invention are specific or selective agonists of alpha2B and/or to a lesser extent alpha2C adrenergic receptors, in preference over alpha2A adrenergic receptors. […] 76, pp. 308-311 (incorporated herein by reference) and is also described below. Another reference pertinent to this assay is Conklin et al. (1993) Nature 363:274-6, Receptor Selection and Amplification Technology (RSAT) assay, also incorporated herein by reference.
The RSAT assay measures a receptor-mediated loss of contact inhibition that results in selective proliferation of receptor-containing cells in a mixed population of confluent cells. The increase in cell number is assessed with an appropriate transfected marker gene such as β-galactosidase, the activity of which can be easily measured in a 96-well format. Receptors that activate the G protein, Gq, elicit this response. Alpha2 receptors, which normally couple to Gi, activate the RSAT response when coexpressed with a hybrid Gq protein that has a Gi receptor recognition domain, called Gq/i5.
NIH-3T3 cells are plated at a density of 2×10^6 cells in 15 cm dishes and maintained in Dulbecco's modified Eagle's medium supplemented with 10% calf serum. One day later, cells are cotransfected by calcium phosphate precipitation with mammalian expression plasmids encoding p-SV-β-galactosidase (5-10 μg), receptor (1-2 μg) and G protein (1-2 μg). 40 μg salmon sperm DNA may also be included in the transfection mixture. Fresh media is added on the following day and 1-2 days later, cells are harvested and frozen in 50 assay aliquots. Cells are thawed and 100 μl added to 100 μl aliquots of various concentrations of drugs in triplicate in 96-well dishes. Incubations continue 72-96 hr at 37° C. After washing with phosphate-buffered saline, β-galactosidase enzyme activity is determined by adding 200 μl of the chromogenic substrate (consisting of 3.5 mM o-nitrophenyl-β-D-galactopyranoside and 0.5% nonidet P-40 in phosphate buffered saline), incubating overnight at 30° C. and measuring optical density at 420 nm. The absorbance is a measure of enzyme activity, which depends on cell number and reflects a receptor-mediated cell proliferation. The efficacy or intrinsic activity is calculated as a ratio of the maximal effect of the drug to the maximal effect of a standard full agonist for each receptor subtype. Brimonidine, also called UK14304, the chemical structure of which is shown below, is used as the standard agonist for the alpha2A, alpha2B and alpha2C receptors.
The results of the RSAT assay with several exemplary compounds of the invention are disclosed in Table 1 above together with the chemical formulas of these examplary compounds. NA stands for “not active” at cohcentrations less than 10 micromolar.

[2] = system: Chung Model of Neuropathic Pain; assay: Chung model of neuropathic pain (tactile allodynia, von Frey hairs); format: in vivo, rats; details: 30 min following drug administration
Source text: A model in accordance with Kim and Chung 1992, Pain […], pp 355-363 (Chung model), for chronic pain (in particular peripheral neuropathy) involves the surgical ligation of the L5 (and optionally the L6) spinal nerves on one side in experimental animals. Rats recovering from the surgery gain weight and display a level of general activity similar to that of normal rats. However, these rats develop abnormalities of the foot, wherein the hindpaw is moderately everted and the toes are held together. More importantly, the hindpaw on the side affected by the surgery appears to become sensitive to pain from low-threshold mechanical stimuli, such as that producing a faint sensation of touch in a human, within about 1 week following surgery. This sensitivity to normally non-painful touch is called “tactile allodynia” and lasts for at least two months. The response includes lifting the affected hindpaw to escape from the stimulus, licking the paw and holding it in the air for many seconds. None of these responses is normally seen in the control group.
Rats are anesthetized before surgery. The surgical site is shaved and prepared either with betadine or Novacaine. Incision is made from the thoracic vertebra XIII down toward the sacrum. Muscle tissue is separated from the spinal vertebra (left side) at the L4-S2 levels. The L6 vertebra is located and the transverse process is carefully removed with a small rongeur to expose the L4-L6 spinal nerves. The L5 and L6 spinal nerves are isolated and tightly ligated with 6-0 silk thread. The same procedure is done on the right side as a control, except no ligation of the spinal nerves is performed.
A complete hemostasis is confirmed, then the wounds are sutured. A small amount of antibiotic ointment is applied to the incised area, and the rat is transferred to the recovery plastic cage under a regulated heat-temperature lamp. On the day of the experiment, at least seven days after the surgery, typically six rats per test group are administered the test drugs by intraperitoneal (i.p.) injection or oral gavage. […], the compounds are formulated in d H2O and given in a volume of 1 ml/kg body weight using an 18-gauge, 3 inch gavage needle that is slowly inserted through the esophagus into the stomach.
Tactile allodynia is measured prior to and 30 minutes after drug administration using von Frey hairs that are a series of fine hairs with incremental differences in stiffness. Rats are placed in a plastic cage with a wire mesh bottom and allowed to acclimate for approximately 30 minutes. The von Frey hairs are applied perpendicularly through the mesh to the mid-plantar region of the rats' hindpaw with sufficient force to cause slight buckling and held for 6-8 seconds. The applied force has been calculated to range from 0.41 to 15.1 grams. If the paw is sharply withdrawn, it is considered a positive response. A normal animal will not respond to stimuli in this range, but a surgically ligated paw will be withdrawn in response to a 1-2 gram hair. The 50% paw withdrawal threshold is determined using the method of Dixon, W. J., Ann. Rev. Pharmacol. Toxicol. 20:441-462 (1980) hereby incorporated by reference. The post-drug threshold is compared to the pre-drug threshold and the percent reversal of tactile sensitivity is calculated based on a normal threshold of 15.1 grams.
All measurements 30 min following drug administration. p value<0.001 compared to pretreatment values.

[3] = system: Sprague-Dawley rats; assay: Sedative activity (exploratory behavior after i.p. injection); format: in vivo; details: intraperitoneally, up to a dose of 1 mg/kg
Protocol: To test sedation, six male Sprague-Dawley rats are given up to 3 mg/kg of the test compound in a saline or DMSO vehicle by intraperitoneal injection (i.p.). Sedation is graded 30 minutes following administration of the drug by monitoring locomotor skills as follows.
The Sprague-Dawley rats are weighed and 1 ml/kg body weight of an appropriate concentration (ie. 3 mg/ml for a final dose of 3 mg/kg) drug solution is injected intraperitoneally. Typically the test compound is formulated in approximately 10 to 50% DMSO. The results are compared to controls that are injected with 1 ml/kg saline or 10 to 50% DMSO. Rat activity is then determined 30 minutes after injection of the drug solution. Rats are placed in a dark covered chamber and a digicom analyzer (Omnitech Electronic) quantitates their exploratory behavior for a five-minute period. The machine records each time the rat interrupts an array of 32 photoelectric beams in the X and Y orientation.
Effects on Cardiovascular System

Row | Structure (SMILES) | Intrinsic Activity Alpha 2B [1] | % Pain Reversal ± SEM ([2]; 3 μg/kg p.o.) | % Pain Reversal ± SEM ([2]; 10 μg/kg p.o.) | % Pain Reversal ± SEM ([2]; 30 μg/kg p.o.) | % Pain Reversal ± SEM ([2]; 100 μg/kg p.o.) | sedative effect [3] | % Pain Reversal ± SEM ([2]; 10 μg/kg i.p.) | % Pain Reversal ± SEM ([2]; 30 μg/kg i.p.) | % Pain Reversal ± SEM ([2]; 300 μg/kg i.p.)
1 | CC(c1c[nH]c(=S)[nH]1)c1cccc2ncccc12 (single isomer, unassigned; (-)) [Compound 15, (−)-4-(1-quinolin-5-yl-ethyl)-1,3-dihydro-imidazole-2-thione] | 0.89 | 58.0 ± 5.3% | 78.0 ± 4.6% | 82.0 ± 6.2% | 81.0 ± 8.1% | no sedative effect |  |  | 
2 | CC(c1c[nH]c(=S)[nH]1)c1cccc2ncccc12 (racemic) [Compound 7, 4-(1-quinolin-5-yl-ethyl)-1,3-dihydro-imidazole-2-thione] | 0.90 |  |  | 77.0 ± 5.1% |  | no sedative effect | 2.9 ± 0.7% | 65.8 ± 6.1% | 77.7 ± 7.2%
